This is an account of results in patent US12286625B2, “Inhibition of mir-22 miRNA by APT-110” (AptamiR Therapeutics, Inc., priority 2016, dated 2025).

One data set relates to DIO C57BL/6 male mice. In kind it is in vivo, mouse. The conditions noted are these: 0.5 mg/kg i.p. The method, then: A dedicated study was conducted under contract at the University of Buckingham Institute of Translational Medicine (Pr. M A Cawthorne, Pr. P Trayhurn, Dr. C. Stocker) to assess the energetic and metabolic responses to the APT-110 miR-22-3p inhibitor treatment in adult Diet-Inducted-Obese (DIO) C57BL/6 male mice over the course of 3 months. Twenty-four DIO male C57BL/6 mice, who started on 60% high fat diet at the age of 7 weeks, were purchased at 15 weeks of age from the Jackson Laboratory, USA. The mice remained on a 60% high fat diet (Research Diet D12492) throughout the experiment. The mice were kept on a 12 h light/12 h dark light cycle with lights on at 08h00 and at a room temperature of 25±1° C. The mice were allocated to 2 groups of 12 mice each, (2 mice/cage) so that mean and standard deviation for body weight, blood glucose and serum insulin were similar across both groups. Mice were acclimated for two weeks before treatment initiation.
For oral glucose tolerance test, food was removed six hours prior to the start of the glucose tolerance test (09h00) and animals were placed in clean cages. Mice were dosed with glucose at T=0 minutes. Glucose was dissolved in water and given to the mice by oral gavage at a dose of 2.5 g/kg p.o. Blood samples […] were taken from the cut tip of the tail after the application of Lidocaine gel (Biorex Laboratories UK) for the analysis of glucose concentration at −30, 0, 30, 60, 120 and 180 minutes relative to glucose administration. Blood samples were also taken at −30 and +30 minutes for insulin analysis (Crystal Chem Inc. Cat INS90090). Food was returned to the animals at the end of the glucose tolerance test. Plasma nonesterified Fatty Acids (NEFA, Crystal Wako Chemicals Gmbh, Neuss, Germany, Cat 999-75406), leptin (Crystal Chem. Inc., Cat LEP90030) and adiponectin (Alpco Diagnostics, Salem, New Hampshire, Cat 47-ADPMS-E01) were measured as per the manufacturers' recommendations. Body fat and lean content was measured by Nuclear Magnetic Resonance (NMR). Comparison with calibrated standards allowed identification of types of tissue by their density. Dedicated software was used to quantify amounts of adipose and […]. The mice were gently restrained, sufficient to keep them quiescent during this non-invasive technique.
To measure physical activity, mice were kept in their original cages of 2 mice per cage. Recordings were taken using an infra-red recorder linked to a laptop. Recordings were made on the hour every hour from 7 pm until 8 am. Each recording was of 10-minute duration. Lights went out at 8 pm and came on again at 8 am. Analysis of activity was done by virtually drawing 2 lines across each cage (thus dividing them into 3 equal parts). Recordings were analyzed by eye and the number of times a line was broken by a mouse in each 10-minute segment was scored. Energy expenditure was measured at several time points during the course of the study by open-circuit indirect calorimetry with mice kept in their home cages (6 cages of 2 mice per experimental group (Arch, J. R., et al., 2006; Arch, J. R. and P. Trayhurn, 2013).
At the end of the study, tissues and organs were collected, then frozen for future gene expression analysis or placed in 10% neutral buffered formalin solution (Sigma-Aldrich Cat HT501128), then washed in PBS, pH 7.4 and transferred to 70% ethanol for subsequent processing for histologic and immunohistochemistry analyses.
In some studies, non-esterified fatty acids (NEFA), plasma leptin and adiponectin were also measured and oral glucose tolerance tests (OGTT) were performed. Oral glucose tolerance test was performed as follows: Six hours prior to the start of the glucose tolerance test (09h00), food was removed and animals were given clean cages. Mice were dosed with glucose at T=0 minutes. […]

For data set [1], the system named is human subcutaneous adipocytes. As to the kind of experiment: Mitochondrial content/mass by MitoTracker in human subcutaneous adipocytes. In kind it is cell-based. Particulars: Day 14; Rosiglitazone 100 nM. The method, then:
To assess the effects of miR-22 inhibition on mitochondrial mass and activity, metabolic rate and energy expenditure, in vitro and in vivo experiments were carried out. In vitro intra-cellular assessment of mitochondrial mass and activities, as well as energy expenditure during miR-22 inhibition of human subcutaneous adipocytes were examined. In the model of primary culture of human subcutaneous adipocytes differentiated for 3 days, then transfected with 50 nM of the miR-22-3p inhibitor APT-110 and maintained in culture (n=6 per condition), the following parameters were assessed on Day 14.
(§1) Human subcutaneous preadipocytes purchased from ZenBio, NC (Catalog #: SP-F-SL) were plated at confluence in 96-well plates and allowed to attach overnight in preadipocyte medium (DMEM/Ham's F-12 (1:1, v/v), HEPES buffer, fetal bovine serum and antibiotics) following the supplier's instructions. […] Using a 96-well format, gene expression was determined by q-RT-PCR kit following the Manufacturer's instructions (TaqMan Gene Expression Cells-to-Ct kit, Life Technologies, cat #AM1728) and a 7900 HT Fast Real Time PCR System (Applied Biosystems). […] Mitochondrial mass and activity as well as UCP-1 protein expression were determined by high content imaging (ArrayScan XTI and BMG Fluostar Galaxy reader), with UCP-1 antibody (abcam cat #ab10983), and MitoTracker® Deep Red FM (ThermoFisher M22426).

The subject of data set [2] is UCP-1 protein expression in human subcutaneous adipocytes. As to the kind of experiment: UCP-1 protein expression by immunofluorescence in human subcutaneous adipocytes. Particulars: Day 14; 50 nM APT-110 or 100 nM rosiglitazone; PBS 48±3%. In kind it is cell-based. The method, then: To assess the effects of miR-22 inhibition on mitochondrial mass and activity, metabolic rate and energy expenditure, in vitro and in vivo experiments were carried out. In vitro intra-cellular assessment of mitochondrial mass and activities, as well as energy expenditure during miR-22 inhibition of human subcutaneous adipocytes were examined. In the model of primary culture of human subcutaneous adipocytes differentiated for 3 days, then transfected with 50 nM of the miR-22-3p inhibitor APT-110 and maintained in culture (n=6 per condition), the following parameters were assessed on Day 14. […]
as §1

The subject of data set [3] is human subcutaneous adipocytes. In words: O2 consumption rate (OCR), Seahorse XF24 with XF Palmitate-BSA Fatty Acid Oxidation kit, human subcutaneous adipocytes. The class given is cell-based. Here is the method: To characterize the effects of miR-22-3p inhibition on energy utilization in human subcutaneous adipocytes in culture, O2 consumption rate (OCR) was measured with the XF24 Analyzer (Seahorse Bioscience) using the XF Palmitate-BSA Fatty Acid Oxidation substrate kit during the successive addition of Oligomycin, FCCP, and Antimycin/Rotenone, following the manufacturer instructions.
Human subcutaneous pre-adipocytes (ZenBio, NC) were seeded into 96-well plates and differentiated for 7 days, then placed in maintenance medium according to the manufacturer's instructions. On Day 14, the adipocytes were transfected with 50 nM of the miR-22-3p inhibitor APT-110. Medium was exchanged every 2 to 3 days and Seahorse assay was performed on Day 21. Negative control was bovine serum albumin (BSA) and positive control was 100 nM rosiglitazone throughout the culture.

For data set [4] the following is noted: Saenger 1989; cited from earlier work.

Broadly, the pKa is the pH at which an ionisable group is half protonated.

Read-outs that look alike come from different tables or passages of the source.

`C[C@H](Cc1ccc2c(c1)OC(C(=O)[O-])(C(=O)[O-])O2)NC[C@H](O)c1cccc(Cl)c1.[Na+].[Na+]` [CL316243, reference compound]: the “energy expenditure after i.p. injection” value with DIO C57BL/6 male mice (APT-110 group) and with DIO C57BL/6 male mice (control (saline) group) was “increased” throughout.

For the compound `CN(CCOc1ccc(CC2SC(=O)NC2=O)cc1)c1ccccn1` (stereo not drawn) [Rosiglitazone, reference compound], the “cell density relative to miR-22-3p inhibitor condition” value in data set [1] is given as 3 times more cells. Further, the “number of UCP1 positive cells” value in data set [2] amounted to 58±2%. For the same compound, the “maximum respiration vs control” value in data set [3] (after FCCP, rosiglitazone 100 nM) is given as 4 fold. Also, the “basal OCR vs control adipocytes” value in data set [3] (basal conditions, rosiglitazone 100 nM or APT-110 50 nM, control BSA) was found to be 4 fold.

For the compound `Nc1ncnc2c1ncn2[C@@H]1O[C@H](CO)[C@@H](O)[C@H]1O` [adenosine], the “pKa of the conjugate acid” value in data set [4] was 3.52.

As to `Nc1nc2c(ncn2[C@@H]2O[C@H](CO)[C@@H](O)[C@H]2O)c(=O)[nH]1` [guanosine], the pKa in data set [4] is reported as 9.42.

In the case of `Cc1cn([C@H]2C[C@H](O)[C@@H](CO)O2)c(=O)[nH]c1=O` [thymidine], the pKa in data set [4] is on record as 9.93.
